US4137322A, “ML-236B carboxylic acid derivatives and their use as antihyperlipemic agents” (Sankyo Company Limited, priority 1976, dated 1979)
Read-outs that look alike come from different tables or passages of the source.

Tests used:
cholesterol biosynthesis = test: Inhibition of cholesterol biosynthesis; type: biochemical
[1] = tested on: total serum cholesterol in beagle dogs; test: Lowering activity of blood cholesterol in beagle dogs; type: in vivo, beagle dog; settings: Canis lupus familiaris, po, 120 h, read-out: Lowering rate of total serum cholesterol
Description: The test was to orally administer an encapsulated test sample twice per day, in the morning (9 o'clock) and evening (16 o'clock), for continuous 5 days, collect a blood sample in the morning after 5 days and determine a total cholesterol level in serum by a conventional method.

[2] = target: T1, 3-hydroxy-3-methylglutaryl-CoA reductase (Rattus norvegicus, UniProt P51639); test: Inhibition of 3-hydroxy-3-methylglutaryl-CoA reductase; type: biochemical
T1 construct: Employed as an enzyme microsome of rat liver; from tissue; host or cells: rat liver microsomes
T1 sequence (P51639 1-887): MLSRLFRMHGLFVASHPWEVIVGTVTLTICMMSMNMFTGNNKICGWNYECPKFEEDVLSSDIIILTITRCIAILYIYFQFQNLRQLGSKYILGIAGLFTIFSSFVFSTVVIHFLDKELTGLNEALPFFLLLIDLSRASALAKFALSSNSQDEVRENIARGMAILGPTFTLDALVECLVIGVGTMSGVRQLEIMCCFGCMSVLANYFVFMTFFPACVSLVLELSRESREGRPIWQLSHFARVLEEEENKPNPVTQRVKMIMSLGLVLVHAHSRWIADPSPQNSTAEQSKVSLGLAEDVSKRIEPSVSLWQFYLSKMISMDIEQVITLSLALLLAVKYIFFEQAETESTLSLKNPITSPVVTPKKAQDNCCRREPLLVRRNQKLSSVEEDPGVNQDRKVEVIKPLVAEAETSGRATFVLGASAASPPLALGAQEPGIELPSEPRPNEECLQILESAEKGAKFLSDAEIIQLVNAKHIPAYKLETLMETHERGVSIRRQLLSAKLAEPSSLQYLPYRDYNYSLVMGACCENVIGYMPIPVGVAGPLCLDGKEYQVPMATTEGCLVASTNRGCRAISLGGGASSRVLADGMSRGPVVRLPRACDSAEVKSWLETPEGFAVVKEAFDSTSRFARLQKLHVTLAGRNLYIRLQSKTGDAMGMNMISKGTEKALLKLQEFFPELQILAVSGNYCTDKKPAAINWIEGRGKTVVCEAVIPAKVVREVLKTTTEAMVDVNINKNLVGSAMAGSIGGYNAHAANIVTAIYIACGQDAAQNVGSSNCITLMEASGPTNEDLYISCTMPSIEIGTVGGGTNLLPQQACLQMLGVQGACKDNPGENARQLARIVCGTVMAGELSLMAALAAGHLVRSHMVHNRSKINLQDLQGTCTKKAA
Description: Inhibition activity of cholesterol biosynthesis [determined according to the method disclosed in J. Biol. Chem., 234, 2835 (1959)] and inhibition activity on 3-hydroxy-3-methylglutaryl-CoA reductase [determined according to the method disclosed in Anal. Biochem., 31, 383 (1969)] of these compounds are summarized in Table 1.
*Employed as an enzyme microsome of rat liver.

[3] = tested on: serum cholesterol in rats; test: Lowering activity of blood cholesterol in rats; type: in vivo, rat; settings: Rattus norvegicus, po, 18 h, read-out: Lowering rate of serum cholesterol
Protocol: A lowering activity of blood cholesterol in rats was assayed on rats. The test was to orally administer a test sample suspended in water, collect a blood sample after 18 hours and determine a cholesterol level in serum by a conventional method.

Acute toxicity in mouse = settings: in vivo, ip
Protocol: (§1) Acute toxicity of ML-236B carboxylic acid derivatives (I) was determined in oral and intraperitoneal administration (both as an aqueous suspension).

Acute toxicity in rat = settings: in vivo, po
Protocol: as §1

[4] = beagle dogs, 25 mg/kg/day, oral twice per day, 5 days
[5] = beagle dogs, 100 mg/kg/day, oral twice per day, 5 days
[6] = enzyme: microsome of rat liver, read-out: Concentration to inhibit 50% of 3-hydroxy-3-methylglutaryl-CoA reductase (converted)
[7] = rats, 5 mg/kg, oral, after 18 hours
[8] = rats, 20 mg/kg, oral, after 18 hours
[9] = LD50, mouse, aqueous suspension

SMILES: CCC(C)C(=O)OC1CCC=C2C=CC(C)C(CCC(O)CC(O)CC(=O)OCC(=O)c3ccc(OC)cc3)C21 (stereo not drawn) [4-methoxyphenacyl, 4-Methoxyphenacyl ML-236B carboxylate]
- Concentration to inhibit 50% of cholesterol biosynthesis (cholesterol biosynthesis): 0.01 µg/mL
- inhibition in vivo at 25 mg/kg/day [1, 4]: 26%
- inhibition in vivo at 100 mg/kg/day [1, 5]: 39%
- IC50 [2, 6]: 359 nM
- inhibition in vivo at 5 mg/kg [3, 7]: 14%
- inhibition in vivo at 20 mg/kg [3, 8]: 23%
- LD50 (Acute toxicity in mouse; [9]): > 500 mg/kg
- LD50 (Acute toxicity in rat; LD50, rat, aqueous suspension): > 2000 mg/kg

SMILES: CCOC(=O)CC(O)CC(O)CCC1C(C)C=CC2=CCCC(OC(=O)C(C)CC)C21 (stereo not drawn) [ethyl, Ethyl ML-236B carboxylate]
- Concentration to inhibit 50% of cholesterol biosynthesis (cholesterol biosynthesis): 0.01 µg/mL
- inhibition in vivo at 25 mg/kg/day [1]: 13%
- inhibition in vivo at 100 mg/kg/day [1]: 19%
- IC50 [2]: 366 nM
- inhibition in vivo at 5 mg/kg [3]: 19%
- inhibition in vivo at 20 mg/kg [3]: 25%
- LD50 (Acute toxicity in mouse): > 500 mg/kg
- LD50 (Acute toxicity in rat): > 2000 mg/kg

SMILES: CCCCCCOC(=O)CC(O)CC(O)CCC1C(C)C=CC2=CCCC(OC(=O)C(C)CC)C21 (stereo not drawn) [n-hexyl, Hexyl ML-236B carboxylate]
- Concentration to inhibit 50% of cholesterol biosynthesis (cholesterol biosynthesis): 0.02 µg/mL
- inhibition in vivo at 25 mg/kg/day [1, 4]: 17%
- inhibition in vivo at 100 mg/kg/day [1, 5]: 29%
- IC50 [2, 6]: 365 nM
- inhibition in vivo at 5 mg/kg [3, 7]: 14%
- inhibition in vivo at 20 mg/kg [3, 8]: 23%
- LD50 (Acute toxicity in mouse; [9]): > 500 mg/kg
- LD50 (Acute toxicity in rat; LD50, rat, aqueous suspension): > 2000 mg/kg

SMILES: CCC(C)C(=O)OC1CCC=C2C=CC(C)C(CCC(O)CC(O)CC(=O)OCc3ccc(C)cc3)C21 (stereo not drawn) [4-methylbenzyl, 4-Methylbenzyl ML-236B carboxylate]
- Concentration to inhibit 50% of cholesterol biosynthesis (cholesterol biosynthesis): 0.01 µg/mL
- inhibition in vivo at 25 mg/kg/day [1, 4]: 30%
- inhibition in vivo at 100 mg/kg/day [1, 5]: 41%
- IC50 [2, 6]: 390 nM
- inhibition in vivo at 5 mg/kg [3, 7]: 13%
- inhibition in vivo at 20 mg/kg [3, 8]: 26%
- LD50 (Acute toxicity in mouse; [9]): > 500 mg/kg
- LD50 (Acute toxicity in rat; LD50, rat, aqueous suspension): > 2000 mg/kg

SMILES: CCC(C)C(=O)OC1CCC=C2C=CC(C)C(CCC(O)CC(O)CC(=O)OCC(=O)c3ccc(C)cc3)C21 (stereo not drawn) [4-methylphenacyl, 4-Methylphenacyl ML-236B carboxylate]
- Concentration to inhibit 50% of cholesterol biosynthesis (cholesterol biosynthesis): 0.01 µg/mL
- inhibition in vivo at 25 mg/kg/day [1, 4]: 20%
- inhibition in vivo at 100 mg/kg/day [1, 5]: 33%
- IC50 [2, 6]: 370 nM
- inhibition in vivo at 5 mg/kg [3, 7]: 14%
- inhibition in vivo at 20 mg/kg [3, 8]: 19%
- LD50 (Acute toxicity in mouse; [9]): > 500 mg/kg
- LD50 (Acute toxicity in rat; LD50, rat, aqueous suspension): > 2000 mg/kg

SMILES: CCC(C)C(=O)OC1CCC=C2C=CC(C)C(CCC(O)CC(O)CC(=O)OCC(=O)c3ccccc3)C21 (stereo not drawn) [phenacyl, Phenacyl ML-236B carboxylate]
- Concentration to inhibit 50% of cholesterol biosynthesis (cholesterol biosynthesis): 0.01 µg/mL
- inhibition in vivo at 25 mg/kg/day [1, 4]: 32%
- inhibition in vivo at 100 mg/kg/day [1, 5]: 42%
- IC50 [2, 6]: 380 nM
- inhibition in vivo at 5 mg/kg [3, 7]: 14%
- inhibition in vivo at 20 mg/kg [3, 8]: 21%
- LD50 (Acute toxicity in mouse; [9]): > 500 mg/kg
- LD50 (Acute toxicity in rat; LD50, rat, aqueous suspension): > 2000 mg/kg

SMILES: CCCCOC(=O)CC(O)CC(O)CCC1C(C)C=CC2=CCCC(OC(=O)C(C)CC)C21 (stereo not drawn) [n-butyl, n-Butyl ML-236B carboxylate]
- Concentration to inhibit 50% of cholesterol biosynthesis (cholesterol biosynthesis): 0.02 µg/mL
- inhibition in vivo at 25 mg/kg/day [1, 4]: 32%
- inhibition in vivo at 100 mg/kg/day [1, 5]: 46%
- IC50 [2, 6]: 344 nM
- inhibition in vivo at 5 mg/kg [3, 7]: 20%
- inhibition in vivo at 20 mg/kg [3, 8]: 26%
- LD50 (Acute toxicity in mouse; [9]): > 500 mg/kg
- LD50 (Acute toxicity in rat; LD50, rat, aqueous suspension): > 2000 mg/kg

SMILES: CCC(C)C(=O)OC1CCC=C2C=CC(C)C(CCC(O)CC(O)CC(=O)OCc3ccc(OC)cc3)C21 (stereo not drawn) [4-methoxybenzyl, 4-Methoxybenzyl ML-236B carboxylate]
- Concentration to inhibit 50% of cholesterol biosynthesis (cholesterol biosynthesis): 0.01 µg/mL
- inhibition in vivo at 25 mg/kg/day [1]: 26%
- inhibition in vivo at 100 mg/kg/day [1]: 36%
- IC50 [2]: 378 nM
- inhibition in vivo at 5 mg/kg [3]: 17%
- inhibition in vivo at 20 mg/kg [3]: 20%
- LD50 (Acute toxicity in mouse): > 500 mg/kg
- LD50 (Acute toxicity in rat): > 2000 mg/kg

SMILES: CCC(C)C(=O)OC1CCC=C2C=CC(C)C(CCC(O)CC(O)CC(=O)OCC(=O)c3ccc(Br)cc3)C21 (stereo not drawn) [4-bromophenacyl, 4-Bromophenacyl ML-236B carboxylate]
- Concentration to inhibit 50% of cholesterol biosynthesis (cholesterol biosynthesis): 0.01 µg/mL
- inhibition in vivo at 25 mg/kg/day [1, 4]: 21%
- inhibition in vivo at 100 mg/kg/day [1, 5]: 30%
- IC50 [2, 6]: 330 nM
- inhibition in vivo at 5 mg/kg [3, 7]: 17%
- inhibition in vivo at 20 mg/kg [3, 8]: 24%
- LD50 (Acute toxicity in mouse; [9]): > 500 mg/kg
- LD50 (Acute toxicity in rat; LD50, rat, aqueous suspension): > 2000 mg/kg

SMILES: CCC(C)C(=O)OC1CCC=C2C=CC(C)C(CCC(O)CC(O)CC(=O)OC(C)C)C21 (stereo not drawn) [isopropyl, Isopropyl ML-236B carboxylate]
- Concentration to inhibit 50% of cholesterol biosynthesis (cholesterol biosynthesis): 0.04 µg/mL
- inhibition in vivo at 25 mg/kg/day [1, 4]: 19%
- inhibition in vivo at 100 mg/kg/day [1, 5]: 30%
- IC50 [2, 6]: 355 nM
- inhibition in vivo at 5 mg/kg [3, 7]: 16%
- inhibition in vivo at 20 mg/kg [3, 8]: 25%
- LD50 (Acute toxicity in mouse; [9]): > 500 mg/kg
- LD50 (Acute toxicity in rat; LD50, rat, aqueous suspension): > 2000 mg/kg

SMILES: CCC(C)C(=O)OC1CCC=C2C=CC(C)C(CCC(O)CC(O)CC(=O)OC)C21 (stereo not drawn) [methyl, Methyl ML-236B carboxylate]
- Concentration to inhibit 50% of cholesterol biosynthesis (cholesterol biosynthesis): 0.01 µg/mL
- inhibition in vivo at 25 mg/kg/day [1]: 12%
- inhibition in vivo at 100 mg/kg/day [1]: 26%
- IC50 [2]: 355 nM
- inhibition in vivo at 5 mg/kg [3]: 18%
- inhibition in vivo at 20 mg/kg [3]: 23%
- LD50 (Acute toxicity in mouse): > 500 mg/kg
- LD50 (Acute toxicity in rat): > 2000 mg/kg

SMILES: CCC(C)C(=O)OC1CCC=C2C=CC(C)C(CCC3CC(O)CC(=O)O3)C21 (stereo not drawn) [ML-236B]
- Concentration to inhibit 50% of cholesterol biosynthesis (cholesterol biosynthesis): 0.01 µg/mL
- inhibition in vivo at 25 mg/kg/day [1, 4]: < 5%
- inhibition in vivo at 100 mg/kg/day [1, 5]: 19%
- IC50 [2, 6]: 12300 nM
- inhibition in vivo at 5 mg/kg [3, 7]: 11.2%
- inhibition in vivo at 20 mg/kg [3, 8]: 17.1%

SMILES: CCC(C)C(=O)OC1CCC=C2C=CC(C)C(CCC(O)CC(O)CC(=O)OCc3ccccc3)C21 (stereo not drawn) [benzyl, Benzyl ML-236B carboxylate]
- Concentration to inhibit 50% of cholesterol biosynthesis (cholesterol biosynthesis): 0.01 µg/mL
- inhibition in vivo at 25 mg/kg/day [1, 4]: 24%
- inhibition in vivo at 100 mg/kg/day [1, 5]: 38%
- IC50 [2, 6]: 401 nM
- inhibition in vivo at 5 mg/kg [3, 7]: 14%
- inhibition in vivo at 20 mg/kg [3, 8]: 24%
- LD50 (Acute toxicity in mouse; [9]): > 500 mg/kg
- LD50 (Acute toxicity in rat; LD50, rat, aqueous suspension): > 2000 mg/kg
